Laboratory results from the NIST ThermoML archive (doi:10.1016/j.fluid.2010.01.020).

What was measured:
[1] = Crystal
[2] = Molar enthalpy of transition or fusion; conditions: Crystal; DSC
[3] = xn = mol fraction of the nth substance listed; conditions: 101 kPa, Liquid, Vibrating tube method

CCn1cc[n+](C)c1.Cc1ccc(S(=O)(=O)[O-])cc1 [1-ethyl-3-methylimidazolium 4-methylbenzenesulfonate]
[1]
Conditions	Normal melting temperature [°C]
DTA	49.2
Solid-Liquid Equilibrium	53.5

Conditions	Molar enthalpy of transition or fusion [kcal/mol]
[2]	4.9

CCn1cc[n+](C)c1.N#C[S-] [1-ethyl-3-methylimidazolium thiocyanate] + O
mass density [kg/m3], [3]
Conditions	298.15 K	308.15 K	318.15 K	328.15 K	338.15 K	348.15 K
x1 = 0.0248	1016	1010.56	1005.23	1000.09	994.12	987.53
x1 = 0.0635	1036.86	1031.47	1025.75	1019.71	1013.39	1006.75
x1 = 0.1377	1062.14	1056.21	1049.96	1043.71	1036.7	1030.27
x1 = 0.2145	1077.88	1071.45	1064.98	1058.44	1051.85	1045.17
x1 = 0.3381	1092.51	1086.08	1079.64	1073.2	1066.76	1060.28
x1 = 0.4198	1098.72	1092.33	1085.98	1079.65	1073.3	1066.97
x1 = 0.5599	1105.92	1099.59	1093.4	1087.19	1081	1074.85
x1 = 0.6524	1109.2	1102.99	1096.81	1090.66	1084.56	1078.47
x1 = 0.7369	1111.59	1105.42	1099.15	1093.24	1087.14	1081.08
x1 = 0.8256	1113.68	1107.51	1101.41	1095.36	1089.34	1083.37
x1 = 0.9263	1115.64	1109.54	1103.5	1097.51	1091.43	1085.62
x1 = 1	1116.84	1110.73	1104.67	1098.69	1092.73	1086.83

O [water] + CCn1cc[n+](C)c1.N#C[S-]
[3], x2 = 0
Conditions	mass density [kg/m3]
308.15 K	992.03
318.15 K	987.02
328.15 K	981.69
338.15 K	977.03
348.15 K	971.75
